# “And” between values parts separate entries of the source, which are not always exact repeats. Equal values may be shown once.
# Columns and labels:
# [1] = tested on: normal human dermal fibroblasts (NHDF); test: Signalling pathway analysis (Ingenuity Pathway Analysis, activation z-score); conditions: for Activation z- score: 2 mg/ml on NHDF
# Excerpt: • Results are considered and presented per gene (and not probe). A probe set is a collection of probes designed to interrogate a given sequence of a gene. […] Gene Ontology database has been more specifically used for the data interpretation. DAVID functional annotation part was used to cluster modulated genes into significant biological processes. […] DAVID database uses the Gene Ontology consortium (http://www.geneontology.org) vocabularies (GO terms) to describe gene products in terms of their associated biological processes. Among them, only biological processes with p-value ≤0.05 were taken into account. • Signal transduction pathway analsis: The results were then processed with IPA (Ingenuity Pathway Analysis, Qiagen®) software to identify signal transduction pathways modulated by each treatment. This software takes into account the Fold Change values of each gene and, when there is enough information, the direction of modulation of the signal transduction pathways can be identified. The relevance of the effect of each treatment on a given pathway was quantified by z-score. The z-score predicts the directional change on that effect.
# A more advanced bioinformatics analysis was performed using the Ingenuity Pathway Analysis software (IPA from Qiagen®). This analysis allows the identification of the impacted signalling pathways and predicts their modulation. The modulation is a stimulation when the Activation z-score is a positive value (Table 11) and an inhibition when the Activation z-score is a negative value (Table 12).
# human preadipocytes = test: Total lipid accumulation (AdipoRed staining) in preadipocytes/adipocytes in inflammatory condition; format: cell-based; conditions: for Total Lipid Accumulation (Adipored staining), Mean / Total Lipid Accumulation (Adipored staining), Values: end of the culture; for Total Lipid Accumulation (Adipored staining), Values: individual values
# Protocol: (§1) Preadipocytes have been isolated from human female hypodermis (body mass index <30 kg/m2 and <45 years old). Preadipocytes have been cultured for 24 h in 100 μl of DMEM-10% Fetal Bovine Serum (FBS) in 96-well plates. Then cells were treated to induce their differentiation in a classical or an inflammatory environment for 13 days.
# (§2) To induce the preadipocytes differentiation cells were incubated in a proadipogenic cocktail (PAC) including insulin, glucocorticoid, 3-isobutyl-1-methylxanthine (IBMX), and thiazolinedione in DMEM.
# (§3) To induce a fibro-inflammatory environment, cells were treated with an activated human macrophage-conditioned medium (AcMC) prepared in RPMI medium. A treatment with Dexamethasone (DXM) at 100 nM was used as anti-inflammatory response control. At D0: preadipocytes have been treated in the following conditions: • “Undifferentiation”: DMEM+¼ RPMI medium • “Differentiation”: PAC+¼ RPMI medium • “AcMC” i.e. inflammatory condition: PAC+¼ AcMC • “AcMC+DXM”: PAC+[…] AcMC+anti-inflammatory DXM at 100 nM • “AcMc+compounds”: PAC+14 AcMC+compounds to be tested
# (§4) All conditions have been performed in triplicate. The medium has been changed every 2 days for 13 days.
# After 14 days of culture, preadipocytes have been fixed with 4% paraformaldehyde and then stained by AdipoRed™ at room temperature to reveal the intracellular lipid droplets. Quantification of lipid accumulation has been performed by fluorescence intensity measurements using the spectrophotometer Spark (TECAN).
# Lipid accumulation and Lipid index were evaluated for each condition. Data are represented in percentage of proinflammatory control condition (AcMC condition).
# IL-6 = test: Extracellular secretion of IL-6 by preadipocytes in inflammatory condition (ELISA); format: cell-based, human; conditions: for IL-6 secretion, Mean / IL-6 secretion, Values: normalized by cells number (DAPI); for IL-6 secretion, Values: individual values; for IL-6 secreted, normalized by cell number, in % of AcMC condition: preadipocytes/adipocytes
# Protocol: as §1, §2, §3, §4
# At D14: during the last 24 h of culture, the medium has been replaced by DMEM/F12 medium in all conditions, to collect cells' secretions.
# After 13 days, the 24 h culture media of the different conditions have been collected at the end of the treatment period. The concentrations of IL-6, procollagen I and MCP1 have been evaluated by ELISA assays using specific kits (for IL-6: DY206, DuoSet ELISA, R&D Systems; for Procollagen I: DY6220-05, DuoSet ELISA, R&D Systems; for MCP1: DY279-05 DuoSet ELISA, R&D Systems) according to the manufacture's recommendations. Values have been normalized to the cell number determined by DAPI staining.
# Quantity of IL-6 secreted in medium was measured and was normalized by cell number in each culture condition. Data are represented in percentage of proinflammatory control condition (AcMC condition).
smiles,measurement,setting,value
N[C@H]1CCCN(CC(F)(F)[C@]2(O)O[C@H](CO)[C@H](O)[C@H](O)[C@H]2O)C1=O [Compound 6],Activation z- score,[1]; Diseases or Functions Annotation: Differentiation of adipocytes,0.545
same,Activation z- score,[1]; Diseases or Functions Annotation: Metabolism of cholesterol,1.421
same,Activation z- score,[1]; Diseases or Functions Annotation: Synthesis of cholesterol,0.998
same,Activation z- score,"[1]; Diseases or Functions Annotation: Synthesis of lipids, z-score >0 = increased",1.380
same,"Regulation of fibrogenesis, tensile strength of skin, synthesis of ROS, inflammatory response and chronic inflammatory disorder at a transcriptional level",[1]; treatment of NHDF,down regulation
same,Regulation of lipid and cholesterol synthesis and differentiation of adipocytes at a transcriptional level,[1]; treatment of NHDF,up regulation
same,"Total Lipid Accumulation (Adipored staining), Mean",human preadipocytes; AcMC + 1 mg/ml,126.8 % of AcMC condition
same,"Total Lipid Accumulation (Adipored staining), Values",human preadipocytes; AcMC + 1 mg/ml,130.3 % of AcMC condition and 123.6 % of AcMC condition and 126.5 % of AcMC condition
same,"Total Lipid Accumulation (Adipored staining), Mean",human preadipocytes; AcMC + 2 mg/ml,137.0 % of AcMC condition
same,"Total Lipid Accumulation (Adipored staining), Values",human preadipocytes; AcMC + 2 mg/ml,137.2 % of AcMC condition and 132.3 % of AcMC condition and 141.4 % of AcMC condition
same,Total lipid synthesis (lipid accumulation) in the inflammatory media,human preadipocytes; both concentration,increase lipid synthesis
same,"IL-6 secretion, Mean",IL-6; AcMC + 1 mg/ml,84.0 % of AcMC condition
same,"IL-6 secretion, Values",IL-6; AcMC + 1 mg/ml,66.1 % of AcMC condition and 95.1 % of AcMC condition and 90.8 % of AcMC condition
same,"IL-6 secretion, Mean",IL-6; AcMC + 2 mg/ml,28.1 % of AcMC condition
same,"IL-6 secretion, Values",IL-6; AcMC + 2 mg/ml,25.5 % of AcMC condition and 26.8 % of AcMC condition and 31.9 % of AcMC condition
same,"IL-6 secreted, normalized by cell number, in % of AcMC condition",IL-6; 1 mg/ml,84%
same,"IL-6 secreted, normalized by cell number, in % of AcMC condition",IL-6; 2 mg/ml,28.1%
same,"IL-6 secreted, normalized by cell number, in % of AcMC condition","IL-6; 2 mg/ml, listed as compound 6",28.1% and 28%

# From US20240124510A1, “Cyclic Glycoaminoacid Derivatives” (TFCHEM, priority 2021, published 2024)
